Results published in ChEMBL document CHEMBL1201862, “PubChem BioAssay data set” (2004).
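These data come from cells grown in 96-well plates and exposed to compound for 48 hours at five concentrations. The concentration for 50% growth inhibition is given as GI50.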 Active and inactive are the calls of the source. Cut-off read from the data, not from the text of the source: active = GI50 up to about 1.1 µM and inactive = higher.

Legend:
Assay in all cases: NCI anticancer screen, dose series, 48 h
HL-60 = test system: HL-60
HCT-116 = test system: HCT-116
LOX IMVI = test system: LOX IMVI
COLO 205 = test system: COLO 205
HCT-15 = test system: HCT-15
TK-10 = test system: TK-10
CAKI-1 = test system: CAKI-1
M14 = test system: M14
MCF7 = test system: MCF7
NCI-H460 = test system: NCI-H460
NCI-H23 = test system: NCI-H23
SN12C = test system: SN12C
NCI-H226 = test system: NCI-H226
Hs-578T = test system: Hs-578T
OVCAR-3 = test system: OVCAR-3
SF-539 = test system: SF-539
SNB-75 = test system: SNB-75
UACC-62 = test system: UACC-62
MDA-N = test system: MDA-N
A498 = test system: A498

Measured: GI50

Oc1cc2c(cc1C(c1ccc3c(c1)OCO3)N1CCN(C(c3ccc4c(c3)OCO4)c3cc4c(cc3O)OCO4)CC1)OCO2 (stereo unspecified)
7.98 µM: HCT-15
inactive: HL-60 32.5 µM | HCT-116 15.7 µM | LOX IMVI 3.24 µM | COLO 205 31 µM | TK-10 20.2 µM | CAKI-1 20.5 µM | M14 14.4 µM | MCF7 27.2 µM | NCI-H460 38.6 µM | NCI-H23 16.9 µM | SN12C 16 µM | NCI-H226 16.1 µM | Hs-578T 11.9 µM | OVCAR-3 17.1 µM | SF-539 16.7 µM | SNB-75 3.46 µM | UACC-62 14.4 µM

O=C1CC(=O)N(C2CCCCC2)C(=O)N1c1ccccc1S(=O)(=O)Oc1ccccc1
inactive: HL-60 > 100 µM | HCT-116 > 100 µM | LOX IMVI 2.59 µM | COLO 205 > 100 µM | TK-10 > 100 µM | CAKI-1 > 100 µM | M14 > 100 µM | MDA-N > 100 µM | MCF7 > 100 µM | NCI-H460 > 100 µM | SN12C > 100 µM | A498 > 100 µM | OVCAR-3 > 100 µM | SF-539 > 100 µM | SNB-75 > 100 µM | UACC-62 > 100 µM
> 100 µM: HCT-15

CN1C(=O)c2c(c3c4ccccc4n(C)c3c3c2c2ccccc2n3C)C1=O
> 100 µM: HCT-15
inactive: HCT-116 > 100 µM | LOX IMVI > 100 µM | COLO 205 > 100 µM | TK-10 > 100 µM | CAKI-1 > 100 µM | M14 > 100 µM | MDA-N > 100 µM | MCF7 > 100 µM | NCI-H460 > 100 µM | NCI-H23 > 100 µM | SN12C > 100 µM | NCI-H226 > 100 µM | A498 > 100 µM | OVCAR-3 58.6 µM | SF-539 > 100 µM | SNB-75 > 100 µM | UACC-62 > 100 µM

COc1ccc(NC(=O)CC/C(CC(=O)c2ccco2)=N/Nc2ccc([N+](=O)[O-])cc2[N+](=O)[O-])cc1
> 100 µM: HCT-15
inactive: HL-60 30.1 µM | HCT-116 76.2 µM | LOX IMVI 39.7 µM | COLO 205 > 100 µM | TK-10 > 100 µM | CAKI-1 > 100 µM | M14 > 100 µM | NCI-H460 > 100 µM | NCI-H23 14.3 µM | SN12C > 100 µM | NCI-H226 > 100 µM | A498 > 100 µM | OVCAR-3 42.6 µM | SF-539 > 100 µM | SNB-75 > 100 µM | UACC-62 34.4 µM

O=C1Oc2ccccc2C(=O)/C1=C/NC(=S)NCc1ccccc1
49.5 µM: HCT-15
inactive: HL-60 42.7 µM | HCT-116 53.8 µM | LOX IMVI 69.3 µM | COLO 205 > 100 µM | TK-10 6.34 µM | CAKI-1 21 µM | M14 75 µM | MDA-N 50.5 µM | MCF7 > 100 µM | NCI-H460 70 µM | NCI-H23 36.2 µM | SN12C 56.5 µM | NCI-H226 > 100 µM | OVCAR-3 > 100 µM | SF-539 43.9 µM | SNB-75 16.9 µM

CC(=O)C1=C(O)/C(=C\c2ccco2)OC1=O
> 10 µM: HCT-15
inactive: HL-60 > 10 µM | HCT-116 > 10 µM | LOX IMVI > 10 µM | COLO 205 > 10 µM | TK-10 > 10 µM | CAKI-1 > 10 µM | M14 > 10 µM | MCF7 > 10 µM | NCI-H460 > 10 µM | NCI-H23 > 10 µM | SN12C > 10 µM | NCI-H226 > 10 µM | Hs-578T > 10 µM | A498 > 10 µM | OVCAR-3 > 10 µM | SF-539 > 10 µM | SNB-75 > 10 µM | UACC-62 > 10 µM

Clc1ccc(Nc2nnc(CCCCCCCCc3nnc(Nc4ccc(Cl)cc4)o3)o2)cc1
32.6 µM: HCT-15
inactive: HCT-116 17.3 µM | COLO 205 39.9 µM | TK-10 55.8 µM | CAKI-1 38.3 µM | M14 36 µM | MDA-N 33.3 µM | MCF7 39 µM | NCI-H460 33.9 µM | NCI-H23 27.6 µM | SN12C 45.7 µM | NCI-H226 46 µM | A498 37.1 µM | SNB-75 82.2 µM | UACC-62 21.7 µM

O=C(CCc1nnc2s/c(=C\c3ccccc3)c(=O)n12)Nc1cc(Cl)ccc1Cl
inactive: HL-60 > 100 µM | HCT-116 24 µM | LOX IMVI > 100 µM | COLO 205 > 100 µM | TK-10 > 100 µM | CAKI-1 > 100 µM | M14 > 100 µM | NCI-H460 > 100 µM | NCI-H23 > 100 µM | SN12C > 100 µM | NCI-H226 > 100 µM | A498 > 100 µM | OVCAR-3 > 100 µM | SF-539 > 100 µM | SNB-75 > 100 µM | UACC-62 > 100 µM
34.2 µM: HCT-15

Clc1cccc(-c2nc3cccc4c3n2Cc2ncccc2-4)c1
> 100 µM: HCT-15
inactive: HCT-116 > 100 µM | COLO 205 > 100 µM | TK-10 42.2 µM | CAKI-1 8.02 µM | M14 > 100 µM | MDA-N > 100 µM | MCF7 > 100 µM | NCI-H460 6.67 µM | NCI-H23 > 100 µM | SN12C > 100 µM | NCI-H226 11.8 µM | A498 > 100 µM | OVCAR-3 32.1 µM | SF-539 41.8 µM | SNB-75 9.04 µM | UACC-62 56.6 µM

CN(C)c1ccc(/C=c2\sc3nc4ccccc4n3c2=O)cc1
inactive: HL-60 > 100 µM | HCT-116 > 100 µM | LOX IMVI > 100 µM | COLO 205 > 100 µM | TK-10 > 100 µM | CAKI-1 > 100 µM | M14 > 100 µM | NCI-H460 > 100 µM | NCI-H23 > 100 µM | SN12C > 100 µM | NCI-H226 > 100 µM | A498 > 100 µM | OVCAR-3 > 100 µM | SF-539 > 100 µM | SNB-75 32.8 µM | UACC-62 > 100 µM
> 100 µM: HCT-15

COc1cc2c[n+]3c4c(c2c(OC)c1OC)CCCC4CC3 (stereo unspecified)
inactive: HCT-116 > 100 µM | COLO 205 > 100 µM | CAKI-1 > 100 µM | M14 > 100 µM | MDA-N > 100 µM | NCI-H460 > 100 µM | NCI-H23 34.8 µM | Hs-578T 9.2 µM | A498 > 100 µM | OVCAR-3 66.5 µM | UACC-62 > 100 µM
> 100 µM: HCT-15

CCSC1(SCC)CC(Cc2ccc(OC)cc2)N(/C=N/C(C)(C)C)C1 (stereo unspecified)
25.8 µM: HCT-15
inactive: HL-60 10.6 µM | HCT-116 20.9 µM | LOX IMVI 15.1 µM | COLO 205 21 µM | TK-10 17.3 µM | CAKI-1 21 µM | M14 14.7 µM | NCI-H460 8.51 µM | NCI-H23 18.7 µM | SN12C 25 µM | NCI-H226 27.6 µM | A498 33.6 µM | OVCAR-3 27.8 µM | SF-539 54.5 µM | SNB-75 26.2 µM | UACC-62 19.1 µM

CCCCC1(OC(=O)CCC(=O)O)CCC2(CCC(C)C(C/C=C(C)/C=C/C(O)C(C)/C=C/C(=O)O)O2)OC1CC/C(C)=C/C(=O)O (stereo unspecified)
3.45 µM: HCT-15
active: NCI-H23 0.535 µM | UACC-62 0.971 µM
inactive: HL-60 4.57 µM | HCT-116 6.19 µM | LOX IMVI 1.66 µM | COLO 205 16.6 µM | TK-10 17 µM | CAKI-1 4.14 µM | M14 1.92 µM | NCI-H460 6.18 µM | SN12C 2.77 µM | NCI-H226 2.14 µM | A498 3.26 µM | OVCAR-3 2.64 µM | SF-539 1.77 µM | SNB-75 2.31 µM

CN(C)C1(c2cc3ccccc3s2)CCCCC1
37.4 µM: HCT-15
active: HL-60 < 0.01 µM
inactive: HCT-116 33.9 µM | LOX IMVI 22.5 µM | COLO 205 26.4 µM | TK-10 47.2 µM | CAKI-1 61.5 µM | M14 17.5 µM | MDA-N 32.2 µM | MCF7 48.6 µM | NCI-H460 29.2 µM | NCI-H23 49.8 µM | SN12C 53.2 µM | NCI-H226 44.9 µM | A498 32.8 µM | OVCAR-3 48.6 µM | SF-539 50.1 µM | SNB-75 32.6 µM | UACC-62 20.5 µM

O=c1c(C(c2cnc3ccccc3c2)c2c(O)oc3ccccc3c2=O)c(O)oc2ccccc12
44.6 µM: HCT-15
inactive: HL-60 37.8 µM | HCT-116 30.3 µM | LOX IMVI 40.1 µM | COLO 205 60.7 µM | TK-10 49.4 µM | CAKI-1 41.3 µM | MDA-N 21.4 µM | NCI-H460 27.6 µM | NCI-H23 41.7 µM | SN12C 25.5 µM | NCI-H226 23.1 µM | Hs-578T 22.4 µM | A498 92.5 µM | OVCAR-3 91.8 µM | SNB-75 13.5 µM | UACC-62 17.6 µM

COc1cc(CC(=O)c2ccc3c(c2)OCO3)cc(OC)c1OC
inactive: HL-60 > 100 µM | HCT-116 > 100 µM | LOX IMVI > 10 µM | COLO 205 > 100 µM | TK-10 > 100 µM | CAKI-1 > 100 µM | M14 > 100 µM | NCI-H460 73.3 µM | NCI-H23 > 100 µM | SN12C > 100 µM | NCI-H226 > 100 µM | A498 > 100 µM | OVCAR-3 > 100 µM | SF-539 > 100 µM | SNB-75 > 100 µM | UACC-62 > 100 µM
> 100 µM: HCT-15
